Patent US10294234B2, “HIV inhibitor compounds” (priority 2017, dated 2019)
pEC50: −log10 of the molar value.

What was measured:
[1] = system: HIV-1 (IIIB) in MT-4 cells; test: MT-4 HIV assay; type: cell-based; settings: Human immunodeficiency virus 1, MT4, 120 h; HIV-1 (IIIB), MT-4 cells, 5 days, Cell Titer Glo; read-out: EC50
How it was run: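 MT-4 cells infected with HIV-1 IIIB (1:250 stock dilution) were incubated with 1:3 serially diluted compounds in RPMI with 10% FBS for 5 days at 37 °C. Cell Titer Glo luminescence was the readout. Plates included mock-infected wells, no-drug wells and 5 uM AZT controls.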

in vivo [2] = settings: for Vd / RAT IV CL / RAT IV T1/2: iv
How it was run: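 Male SD rats (n=3/group, 0.27–0.32 kg), fasted overnight, given 0.5 or 1.0 mg/kg by 30-min IV infusion, or by oral gavage. Serial plasma samples (EDTA-K2) over 24 h measured by LC/MS/MS; non-compartmental PK analysis.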

[3] = 3H Human Predicted Clearance Assay (tritiated analogs); type: in vitro ADME; settings: human, 1 uM
Protocol: 3H Human Predicted Clearance Assay:
For certain compounds, tritiated analogs (H^3) were prepared to further determined their human predicted clearance with increased resolution. Those studies were performed as described above using the tritiated analogs. Data from those compounds is found in Table 2 below and reported in FIG. 1 (note ATV and DRV were not tritiated).

[4] = microsomes
How it was run: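 Dog, rat and human liver microsomes (0.5 mg/mL) with NADPH-regenerating cofactor; test compound 1 uM, duplicates. Timepoints 2, 12, 25, 45, 65 min; protein removed by centrifugation, supernatant analysed by LC/MS/MS. Clint from t1/2.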

in vivo [5] = settings: for DOG IV T1/2: IV infusion over 30 minutes, 0.5 or 1.0 mg/kg; for DOG IV CL / Vd: iv
Protocol: Pharmacokinetic Profiling Dog PK
Each dosing group consisted of three non-naïve male beagle dogs. At dosing, the animals weighed between 9 to 12 kg. The animals were fasted overnight prior to dose administration and up to four hours after dosing. The test article was administered by intravenous infusion over 30-minutes. The rate of infusion was adjusted according to the body weight of each animal to deliver a dose of 0.5 or 1.0 mg/kg. For the oral dosing group, the test article was administered by oral gavage at a dose volume of 2 mL/kg.
Serial venous blood samples (approximately 1.0 mL each) were collected at predose and 0.25, 0.48, 0.58, 0.75, 1.0, 1.5, 2, 4, 8, 12 and 24 hours post dose from each animal for the IV dosing group; blood samples were collected at predose, 0.25, 0.50, 1, 2 4, 6, 8,12 and 24 hours post dose for the oral dosing group. The blood samples were collected into Vacutainer™ tubes containing EDTA-K2 as the anti-coagulant and were immediately placed on wet ice pending centrifugation for plasma. An LC/MS/MS method was used to measure the concentration of test compound in plasma. Non-compartmental pharmacokinetic analysis was performed on the plasma concentration-time data. VSS=apparent volume of distribution, t1/2=half life, F=oral bioavailability.

[6] = system: HIV-1 (IIIB) in MT-4 cells; test: Protein adjusted EC95 (high resolution antiviral assay with equilibrium dialysis plasma protein binding); type: cell-based; settings: EC95 adjusted for plasma protein binding (10% plasma vs cell culture media)
Protocol: (§1) MT-4 HIV High Resolution Antiviral Assay
(§2) Assay protocol is identical to that described for the MT-4 antiviral assay with the following changes: Each drug is run in 2 series of quadruplicates with different starting concentrations for each series and 19 1.5 fold dilutions performed across the plate. […] Data is analyzed and Hill coefficients determined in Graph Pad Prism (San Diego, Calif.). EC95s were determined by the formula EC95=(19)^I/hill coefficient×EC50. HD values were determined for certain compounds and reported in Table 5 below as an illustrative example.
Equilibrium Dialysis Assay
Pooled plasma (from at least 3 males and 3 females) was from Bioreclamation IVT. Sodium EDTA was used as the anticoagulant. 10% plasma was diluted in 0.133M phosphate buffer consisted of 1.5% (w/v) Sodium EDTA.
RPMI cell culture media consisted 10% FBS was provided by biology department, Gilead Sciences, Inc.
Plasma Protein Binding Assay:
Studies were conducted in duplicate or triplicate using a Dianorm Equilibrium Dialyser (Harvard Apparatus, Holliston Mass.) with each cell consisting of a semipermeable membrane (2.4 cm working diameter) separating two 1 mL PTFE half-cells (Weder HG, Schildknecht J, Kesselring P. A new equilibrium dialyzing system. American Laboratory. 1971; 10: 15-21). Prior to the study, the dialysis membrane was soaked for approximately one hour in 0.133 M phosphate buffer, pH 7.4. 10% plasma and cell culture media spiked with 1 μM compound (1 mL) were placed into opposite sides of the assembled dialysis cells and the dialysis cells were then rotated slowly in a 37° C. water bath. After the equilibration period, matrix-containing samples from both sides were drained into pre-weighed polypropylene tubes. Post-dialysis 10% plasma samples were transferred into centrifuge tubes containing 1 mL of blank cell culture media. Post-dialysis cell culture media samples were transferred into centrifuge tubes containing 1 mL of blank 10% plasma. All samples weights were measured and recorded for calculations of volume shift and recovery. […]

[7] = system: HIV-1 (IIIB) in MT-4 cells; test: MT-4 HIV High Resolution Antiviral Assay; type: cell-based
Protocol: Compounds were tested in a high-throughput 384-well assay format for their ability to inhibit the replication of HIV-1 (IIIB) in MT-4 cells. Compounds were serially diluted (1:3) in DMSO on 384-well polypropylene plates and further diluted 200-fold into complete RPMI media (10% FBS, 1% P/S) using the Biotek Micro Flow and Agilent ECHO acoustic dispenser. Each plate contained up to 8 test compounds, with negative (No Drug Control) and 5 uM AZT positive controls. MT-4 cells were pre-infected with 10 uL of either RPMI (mock-infected) or a fresh 1:250 dilution of an HIV-1 (IIIB) concentrated virus stock. Infected and uninfected MT-4 cells were further diluted in complete RPMI media and added to each plate using a Micro Flow dispenser. After 5 days incubation in a humidified and temperature controlled incubator (37° C.), Cell Titer Glo (Promega) was added to the assay plates to quantify the amount of luciferase. EC50 and CC50 values were defined as the compound concentration that causes a 50% decrease in luminescence signal, and were calculated using a sigmoidal dose-response model to generate curve fits.
as §1, §2

[8] = male, SD, rat, in vivo, po, 2.5 mg/kg
[9] = male, beagle, dog, in vivo, po, 2 mg/kg

SMILES | pEC50 [1] | Vd (in vivo [2]; male, SD, rat, in vivo) [L/kg] | RAT PO F (in vivo [2]; [8]) [%] | RAT IV CL (in vivo [2]; rat, in vivo) [mL/min/kg] | RAT IV T1/2 (in vivo [2]; rat, in vivo) [h] | 3H Human Predicted Cl. [3] | Human Pred Cl. [4] [L/H/kg] | Rat. Pred. Cl. [4] [L/H/kg] | DOG IV CL (in vivo [5]; dog, in vivo) [mL/min/kg] | DOG IV T1/2 (in vivo [5]; male beagle dogs) [h] | Vd (in vivo [5]; male, beagle, dog, in vivo) [L/kg] | DOG PO F (in vivo [5]; [9]) [%] | Dog. Pred. Cl. [4] [L/H/kg] | RAT PO F (in vivo [2]; male SD rats, oral gavage, PO dose 2.0 mg/kg) [%] | Protein Adjusted EC95 [6] [nM] | pEC50 ([7]; Human immunodeficiency virus 1, IIIB, MT4) | EC95 ([7]; calculated from Hill coefficient and EC50) [nM] | Hill-coefficient ([7]; high resolution assay, Graph Pad Prism) | DOG PO F (in vivo [5]; male beagle dogs, oral gavage, PO dose 2 mg/kg) [%]
COC(=O)N[C@H](C(=O)N[C@@H](Cc1ccc(C#Cc2ccc(N3CC4CCC(C3)N4C3COC3)nc2)cc1)[C@@H](O)CN(Cc1c(F)cc(-c2ccn(C3CC3)n2)cc1F)NC(=O)[C@@H](NC(=O)OC)C(C)(C)C(F)(F)F)C(C)(C)C(F)(F)F [Example 170, Methyl ((5S,8S,9S,14S)-11-(4-(1-cyclopropyl-1H-pyrazol-3-yl)-2,6-difluorobenzyl)-16,16,16-trifluoro-9-hydroxy-15,15-dimethyl-8-(4-((6-(8-(oxetan-3-yl)-3,8-diazabicyclo [3.2.1]octan-3-yl)pyridin-3-yl)ethynyl)benzyl)-3,6,13-trioxo-5-(1,1,1-trifluoro-2-methylpropan-2-yl)-2-oxa-4,7,11,12-tetraazahexadecan-14-yl)carbamate] | 8.38 | 3.32 | 36.6 | 5.83 | 9.38 | 0.05 | <0.11 | <0.18 | 23.2 | 7.62 | 4.35 | 2.45 |  |  |  |  |  |  | 
COC(=O)N[C@H](C(=O)NN(Cc1c(F)cc(-c2ccn(C(F)F)n2)cc1F)C[C@H](O)[C@H](Cc1ccc(C#Cc2ccc(N3CC4CCC(C3)N4C3COC3)nc2)cc1)NC(=O)[C@@H](NC(=O)OC)C(C)(C)C(F)(F)F)C(C)(C)C [Example 73, Methyl ((5S,8S,9S,14S)-11-(4-(1-(difluoromethyl)-1H-pyrazol-3-yl)-2,6-difluorobenzyl)-9-hydroxy-15,15-dimethyl-8-(4-((6-(8-(oxetan-3-yl)-3,8-diazabicyclo[3.2.1]octan-3-yl)pyridin-3-yl)ethynyl)benzyl)-3,6,13-trioxo-5-(1,1,1-trifluoro-2-methylpropan-2-yl)-2-oxa-4,7,11,12-tetraazahexadecan-14-yl)carbamate] | 8.33 | 3.34 | 35 | 5.33 | 9.43 | 0.09 | 0.13 | <0.18 |  |  |  |  |  |  |  |  |  |  | 
COC(=O)N[C@H](C(=O)N[C@@H](Cc1ccc(C#Cc2ccc(N3CC4CCC(C3)N4C3COC3)nc2)cc1)[C@@H](O)CN(Cc1c(F)cc(-c2ccn(CC(F)F)n2)cc1F)NC(=O)[C@@H](NC(=O)OC)C(C)(C)C(F)(F)F)C(C)(C)C(F)(F)F [Example 46, Methyl ((5S,10S,11S,14S)-8-(4-(1-(2,2-difluoroethyl)-1H-pyrazol-3-yl)-2,6-difluorobenzyl)-16,16,16-trifluoro-10-hydroxy-15,15-dimethyl-11-(4-((6-(8-(oxetan-3-yl)-3,8-diazabicyclo[3.2.1]octan-3-yl)pyridin-3-yl)ethynyl)benzyl)-3,6,13-trioxo-5-(1,1,1-trifluoro-2-methylpropan-2-yl)-2-oxa-4,7,8,12-tetraazahexadecan-14-yl)carbamate] | 8.36 | 4.22 | 13 | 7.5 | 9.22 | 0.04 | <0.11 | 0.19 |  |  |  |  | 1.64 |  |  |  |  |  | 
CC(C)CN(C[C@@H](O)[C@H](Cc1ccccc1)NC(=O)O[C@H]1CO[C@H]2OCC[C@H]21)S(=O)(=O)c1ccc(N)cc1 [darunavir, [(3aS,4R,6aR)-2,3,3a,4,5,6a-hexahydrofuro[2,3-b]furan-4-yl] N-[(2S,3R)-4-[(4-aminophenyl)sulfonyl-(2-methylpropyl)amino]-3-hydroxy-1-phenylbutan-2-yl]carbamate, reference compound] |  | 0.73 |  |  |  |  |  |  |  |  | 0.87 |  |  | 24 | 42 | 8.14 | 19.9 | 2.9 | 38
COC(=O)N[C@H](C(=O)N[C@@H](Cc1ccc(C#Cc2cnc(N3CC4CCC(C3)N4C3COC3)nc2)cc1)[C@@H](O)CN(Cc1c(F)cc(-c2ccn(C(F)F)n2)cc1F)NC(=O)[C@@H](NC(=O)OC)C(C)(C)C(F)(F)F)C(C)(C)C(F)(F)F [Example 171, Methyl ((5S,8S,9S,14S)-11-(4-(1-(difluoromethyl)-1H-pyrazol-3-yl)-2,6-difluorobenzyl)-16,16,16-trifluoro-9-hydroxy-15,15-dimethyl-8-(4-((2-(8-(oxetan-3-yl)-3,8-diazabicyclo[3.2.1]octan-3-yl)pyrimidin-5-yl)ethynyl)benzyl)-3,6,13-trioxo-5-(1,1,1-trifluoro-2-methylpropan-2-yl)-2-oxa-4,7,11,12-tetraazahexadecan-14-yl)carbamate] | 8.34 | 8.11 | 39 | 5.33 | 22.5 | 0.02 | <0.11 | 0.215 | 4.33 | 13.4 | 3.12 | 23 | 0.27 |  |  |  |  |  | 
